What is called pEC50 is the EC50 on a negative log10 scale, so that one unit is a factor of ten. As a reminder, the EC50 is the concentration giving half of the maximal effect.

pEC50: −log10 of the molar value. Like-named read-outs stand apart in the source and are kept apart here.

This note sets out measurements from patent EP2601188B1, “HEPATITIS C VIRUS INHIBITORS” (Bristol-Myers Squibb Company, priority 2010, dated 2012).

In the assay the test system is HCV 1b genotype. Nature of the assay: HCV Replicon assay (HCV-neo replicon cells, wild-type). Type of assay: cell-based. The note with it: HCV 1b genotype replicon; for pEC50: class symbols, read-out: EC50 Range; for EC50: values in nM, read-out: EC50. The method, then: An HCV Replicon assay was utilized in the present disclosure, and was prepared, conducted and validated as described in commonly owned PCT/US2006/022197 and in O'Boyle et. al. Antimicrob Agents Chemother. 2005 Apr;49(4):1346-53. Assay methods incorporating luciferase reporters have also been used as described (Apath.com).
HCV-neo replicon cells and replicon cells containing mutations in the NS5A region were used to test the currently described family of compounds. The compounds were determined to have more than 10-fold less inhibitory activity on cells containing mutations than wild-type cells. Thus, the compounds of the present disclosure can be effective in inhibiting the function of the HCV NS5A protein and are understood to be as effective in combinations as previously described in application PCT/US2006/022197 and commonly owned WO/O4014852. Further, the compounds of the present disclosure can be effective against the HCV 1b genotype. It should also be understood that the compounds of the present disclosure can inhibit multiple genotypes of HCV. […] In one embodiment, compounds of the present disclosure are inhibitory versus 1a, 1b, 2a, 2b, 3a, 4a, and 5a genotypes.
(In antiviral work, replicon cells carry a viral genome segment that copies itself.)

For `CC(=O)N1CCC[C@H]1C(=O)Nc1ccc(C#Cc2ccc3nc([C@@H]4CCCN4C(=O)Cc4ccccc4)[nH]c3c2)cc1` [M.8, (S)-1-acetyl-N-(4-((2-((S)-1-(2-phenylacetyl)pyrrolidin-2-yl)-1H-benzo[d]imidazol-6-yl)ethynyl)phenyl)pyrrolidine-2-carboxamide], where the note is “Hepatitis C virus”, the pEC50 is 7.00 to 8.34 and the EC50 was 46.4 nM.
As for `O=C(Nc1ccc(C#Cc2ccc3nc([C@@H]4CCCN4C(=O)Cc4ccccc4)[nH]c3c2)cc1)[C@@H]1CCCN1C(=O)Cc1ccccc1` [M.9, (S)-1-(2-phenylacetyl)-N-(4-((2-((S)-1-(2-phenylacetyl)pyrrolidin-2-yl)-1H-benzo [d]imidazol-6-yl)ethynyl)phenyl)pyrrolidine-2-carboxamide], the pEC50 (Hepatitis C virus) was 7.00 to 8.34.
Regarding `CC(=O)N1CCC[C@H]1C(=O)Nc1ccc(CCc2ccc3nc([C@@H]4CCCN4C(=O)Cc4ccccc4)[nH]c3c2)cc1` [M.10, (S)-1-acetyl-N-(4-(2-(2-((S)-1-(2-phenylacetyl)pyrrolidin-2-yl)-1H-benzo[d]imidazol-6-yl)ethyl)phenyl)pyrrolidine-2-carboxamide], for the setting “Hepatitis C virus”, the pEC50 was 6.00 to 7.00 and the EC50 was determined as 202 nM.
On to `O=C(Nc1ccc(CCc2ccc3nc([C@@H]4CCCN4C(=O)Cc4ccccc4)[nH]c3c2)cc1)[C@@H]1CCCN1C(=O)Cc1ccccc1` [M.11, (S)-1-(2-phenylacetyl)-N-(4-(2-(2-((S)-1-(2-phenylacetyl)pyrrolidin-2-yl)-1H-benzo [d]imidazol-6-yl)ethyl)phenyl)pyrrolidine-2-carboxamide], for which the pEC50 (Hepatitis C virus) is 7.00 to 8.34.
For “(2R)-2-(dimethylamino)-N-(3-(5-(2-((2S)-1-((2R)-2-(dimethylamino)-2-phenylacetyl)-2-pyrrolidinyl)-1H-benzimidazol-5-yl)-1,3-oxazol-2-yl)phenyl)-2-phenylacetamide [J.48b]”, the negative-log EC50 (pEC50) was 7.00 to 8.34.
